Test results: the NIST ThermoML archive (doi:10.1016/j.jct.2012.03.027)

Experiments:
[1] = for vapor or sublimation pressure: Closed cell (Static) method; for Triple point temperature: DTA
[2] = Molar enthalpy of transition or fusion; details: Crystal; DSC
[3] = molar heat capacity at constant pressure; details: 298.15 K, 101.33 kPa, Drop calorimetry

OCC(F)(F)C(F)(F)C(F)(F)C(F)(F)C(F)(F)C(F)(F)C(F)(F)F [2,2,3,3,4,4,5,5,6,6,7,7,8,8,8-pentadecafluoro-1-octanol]
[1]
Details	vapor or sublimation pressure [kPa]
268.27 K, Crystal	0.00104
273.24 K, Crystal	0.00201
278.21 K, Crystal	0.00388
283.17 K, Crystal	0.00714
288.15 K, Crystal	0.01272
293.15 K, Crystal	0.02273
295.64 K, Crystal	0.03033
298.14 K, Crystal	0.03911
300.61 K, Crystal	0.05177
303.13 K, Crystal	0.06648
305.62 K, Crystal	0.08724
308.1 K, Crystal	0.1113
310.56 K, Crystal	0.1412
313.08 K, Crystal	0.1815
315.52 K, Crystal	0.2288
318.05 K, Crystal	0.2936
320.52 K, Liquid	0.3615
323.01 K, Liquid	0.4351
325.52 K, Liquid	0.524
328.01 K, Liquid	0.6236
330.49 K, Liquid	0.7457
332.97 K, Liquid	0.871
335.47 K, Liquid	1.048
337.97 K, Liquid	1.233
339.44 K, Liquid	1.359

Crystal
Details	Triple point temperature [K]	molar heat capacity at constant pressure [J/K/mol]
[1]	318.2	–
[3]	–	468.6

Details	Molar enthalpy of transition or fusion [kcal/mol]
[2]	2.84

OCC(F)(F)C(F)(F)C(F)(F)C(F)(F)C(F)(F)C(F)(F)C(F)(F)C(F)(F)C(F)(F)C(F)(F)F [1H,1H-perfluoroundecan-1-ol]
[1], Crystal
Details	vapor or sublimation pressure [kPa]
310.53 K	0.00219
313.02 K	0.00299
315.51 K	0.00402
318 K	0.00537
320.48 K	0.00715
323 K	0.00968
325.47 K	0.01321
327.95 K	0.01724
330.42 K	0.02207
332.87 K	0.02909
335.42 K	0.03815
337.85 K	0.04977
340.35 K	0.06415
342.81 K	0.08275
345.3 K	0.1064
347.8 K	0.1361

Details	Triple point temperature [K]
[1], Crystal	374

Details	Molar enthalpy of transition or fusion [kcal/mol]
[2]	5.35

OCC(F)(F)C(F)(F)C(F)(F)C(F)(F)C(F)(F)C(F)(F)F [2,2,3,3,4,4,5,5,6,6,7,7,7-tridecafluoro-1-heptanol]
[1], Liquid
Details	vapor or sublimation pressure [kPa]
275.55 K	0.01786
278.02 K	0.02308
280.53 K	0.03001
282.99 K	0.03804
285.49 K	0.04858
287.97 K	0.06227
290.46 K	0.07837
292.95 K	0.09912
295.45 K	0.1247
297.97 K	0.1587
300.43 K	0.1946
302.94 K	0.2431
305.4 K	0.294
307.91 K	0.3632
310.39 K	0.4344
312.88 K	0.5339
315.35 K	0.6248
317.87 K	0.7553

Details	molar heat capacity at constant pressure [J/K/mol]
[3], Liquid	476.8

OCC(F)(F)C(F)(F)C(F)(F)C(F)(F)C(F)(F)C(F)(F)C(F)(F)C(F)(F)F [2,2,3,3,4,4,5,5,6,6,7,7,8,8,9,9,9-heptadecafluoro-1-nonanol]
[1]
Details	vapor or sublimation pressure [kPa]
275.71 K, Crystal	0.00048
278.17 K, Crystal	0.00067
283.16 K, Crystal	0.00128
288.15 K, Crystal	0.0025
293.14 K, Crystal	0.00477
298.11 K, Crystal	0.00866
303.13 K, Crystal	0.01568
308.1 K, Crystal	0.02727
313.09 K, Crystal	0.04767
318.06 K, Crystal	0.07933
323.03 K, Crystal	0.13
342.99 K, Liquid	0.8017
344 K, Liquid	0.8571
345.48 K, Liquid	0.9447
347.97 K, Liquid	1.11
350.45 K, Liquid	1.3
351.45 K, Liquid	1.383

Details	Triple point temperature [K]
[1], Crystal	342.2

Details	Molar enthalpy of transition or fusion [kcal/mol]
[2]	3.97

OCC(F)(F)C(F)(F)C(F)(F)C(F)(F)C(F)(F)C(F)(F)C(F)(F)C(F)(F)C(F)(F)F [1H,1H-perfluoro-1-decanol]
[1], Crystal
Details	vapor or sublimation pressure [kPa]
303.92 K	0.00452
308 K	0.00755
312.98 K	0.01315
318.07 K	0.02289
323.07 K	0.03765
327.88 K	0.06457
332.84 K	0.1045
337.79 K	0.1714
342.75 K	0.2677
347.71 K	0.414
352.65 K	0.6247
355.65 K	0.8008
358.15 K	0.97

Details	Triple point temperature [K]
[1], Crystal	358.5

Details	Molar enthalpy of transition or fusion [kcal/mol]
[2]	3.8
